Source: US12213990B2, “A3 adenosine receptor ligand for use for achieving a fat loss effect” (CAN-FITE BIOPHARMA LTD., priority 2019, dated 2025)

What was measured:
3T3-L1 adipocytes [1] = experiment: 3H-thymidine incorporation assay, proliferation of 3T3-L1 adipocytes; type: cell-based; settings: 3T3-L1 cells
Description: 3T3-L1 pre-adipocytes were purchased from American Type Culture Collection (ATCC; Manassas, VA, USA). The pre-adipocytes were maintained in Dulbecco's modified Eagle's medium (DMEM; Hyclone, South Logan, UT, USA), and supplemented with 10% newborn calf serum (Hyclone) and antibiotics (Hyclone) at 37° C. in 5% CO2. To induce adipocyte differentiation, the pre-adipocytes were plated at 24-well plates. After confluence, the medium was changed and 10 μg/ml insulin, 1 μM DEX and 0.5 mM IBMX was added. Two days later the media were changed to the basal medium supplemented with 10% FBS and 10 μg/ml insulin. The media were replaced every 2 days for a period of 8-14 days. To evaluate cell proliferation, ^3H-thymidine incorporation assay was used. The 3T3-L1 cells (5,000 cells/well) were incubated with 5 or 10 nM CF102 96-well plate for 48 hours. Each well was pulsed with […] ^3H-thymidine for the last 24 hours. Cells were harvested and the ^3H-thymidine uptake was determined in an LKB liquid scintillation counter (LKB, Piscataway, NJ, USA).

3T3-L1 adipocytes [2] = experiment: Oil-Red-O staining, accumulation of lipid droplets in 3T3-L1 adipocytes; type: cell-based; settings: 5 nM CF102, 48 h, p=0.01
Description: Pre-adipocytes were incubated in a differentiated medium (DMEM high glucose+10% FBS) containing 10 μg/ml insulin, 1 μM DEX and 0.5 mM IBMX and treated with 5 nM CF102 for 48 h to evaluate its potential anti-adipogenic effect. The accumulation of lipid droplets was evaluated by staining with Oil-Red-O. Briefly, cells were washed with PBS, incubated with 3.7% HCHO for 1 hr and then, incubated with Oil-Red-O solution for 45 min. Cells were washed very well to remove the excess of Oil-Red-O, visualized and photographed under an Olympus microscope with a Leica camera. For the quantification of lipid accumulation, cells were dissolved in isopropanol and the optical density was read on a Dynatech Corp. Microelisa reader (Chantilly, VA) at 595 nm. The degree accumulation of lipid droplets was proportional to the optical density.

[3] = Body weight in diet-induced obesity mouse model (HFD vs. regular diet); type: in vivo, C57BL/6J mice; settings: HFD 12 weeks, then 100 μg/Kg daily oral for 4 weeks
From the text: Because complications from obesity such as diabetes and cardiovascular disease usually require decades, surrogate animal models are important for studying the molecular aspects of obesity and its pathophysiological effects. One of these models that are gaining increasing attention is the diet-induced obesity model in mouse. The present protocol is designed to evaluate effects of CF102 in an in vivo mouse model of Diet-Induced obesity. The mice utilized are C57BL/6J males, 4-6 weeks old (The Jackson Laboratory, stock 000664). 60 kcal % fat diet (Research Diets, D12492i) Group I-II: Naïve animals (n=20) were fed with a regular diet, served as a control group and were defined as ‘Lean Diet’ After 12 weeks, mice were divided into 2 groups (n=10 per group), the first was treated with a daily oral administration of CF102 (Can-Fite BioPharma, Cat #A14402-10; 100 μg/Kg) for 4 weeks and the second with vehicle only. Group III-IV—Naïve mice (n=20) were fed with HFD for 12 weeks. After 12 weeks, mice were divided into 2 groups (n=10 per group), the first was treated with daily oral administration of CF102 (Can-Fite BioPharma, Cat #A14402-10; 100 μg/Kg) for 4 weeks and the second with vehicle only.

[4] = Body weight in STZ-induced diabetic rat model; type: in vivo, Sprague Dawley rats; settings: STZ diabetic rats, 100 μg/kg orally twice daily for five days
Description: Diabetes is one of the complications of obesity. Therefore, the effect of an A3AR ligand on body weight in a diabetic model was also evaluated.
Sprague Dawley male rats (8-10 week old) were administered IP with Streptozotocin (STZ) at a dose level of 60 mg/kg in citrate buffer to create a diabetic model. Only animals with blood glucose level higher than 250 mg/dL were included in the study. CF602, an allosteric A3AR ligand was administered orally twice daily for five days at a dose of 100 μg/kg. Body weight was monitored after 5 days.

## CNC(=O)[C@H]1O[C@@H](n2cnc3c(NCc4cccc(I)c4)nc(Cl)nc32)[C@H](O)[C@@H]1O [CF102, 2-chloro-N^6-(3-iodobenzyl)-adenosine-5′-N-methyluronamide]
3T3-L1 adipocytes [1]; 5 nM CF102, 48 hours
  reduction of adipocyte proliferation compared to the control measurement: more than 20%
3T3-L1 adipocytes [1]; 10 nM CF102, 48 hours
  reduction of adipocyte proliferation compared to the control measurement: > 40%
3T3-L1 adipocytes [2]
  lipid accumulation (OD value at 595 nm) vs. vehicle treated control: inhibition in lipid accumulation
[3]
  weight loss, mice under HFD: significant (p<0.001) weight loss effect

## Clc1ccc(Nc2nc3ccccc3c3[nH]c(C4CCCCC4)nc23)cc1Cl [CF602, N-(3,4-Dichloro-phenyl)-2-cyclohexyl-1H-imidazo[4,5-c]quinolin-4-amine]
[4]
  weight change from baseline (body weight): significant (p<0.03) decrease in body weight
